Tests used:
Format in all cases: in vivo, rat
[1] = tested on: rats; assay: Acute toxicity tests on rats; conditions: dose of 1000 mg/kg body weight
Protocol: Acute toxicity tests were performed on rats.

[2] = tested on: SD rats; assay: Hot plate experiment in rats with sciatic nerve ligation; conditions: for paw lifting time threshold due to heating pain at surgical side after administration: P5 0.2 μg/kg caudal vein, ibuprofen 50 mg/kg intragastric
Protocol: Eighteen male SD rats of 240-260 g (purchased from Huafukangcheng Co., Ltd.) were selected as experimental rats, and divided into three groups with six rats in each group for a hot plate experiment, including a group administered with Polypeptide P5 at a dose of 0.2 μg/kg, a group administered with normal saline and a group administered with positive control drug (ibuprofen, 50 mg/kg). Screening was conducted before the experiment.
(§1) 4.0 chromic catguts (purchased from Shandong Boda Medical Products Co., Ltd.) were immersed into normal saline (purchased from Shijiazhuang Four Medicine Co., Ltd., National Pharmaceutical Standard H13023200) for 30 minutes for softening. Rats were shaved in the middle of their thighs, and wiped with iodine. Wound at 1 cm below the epidermis was created with a scissor, and then a J31060 hemostat was used to tear the biceps femoris. The sciatic nerve was thus exposed at the middle of the thighs. The end proximal to the leg was the trigeminal sciatic nerve. The sciatic nerve at the middle of the thighs was gently ligated four times with the 4.0 chromic catguts. The force was deemed appropriate if muscles near the ligation site slightly trembled. The adjacent ligation sites were 1 mm apart. Then muscles and epidermal tissues were sutured separately.
(§2) Before the experiment, the rats with successful surgery in the test group were injected via caudal vein with Peptide P5 in normal saline (dose at 0.2 μg/kg). Rats in normal saline group were intraperitoneally injected with 0.3 mL of normal saline. The positive drug group was administered via intragastric infusion with ibuprofen suspension (purchased from Shanghai Qiangsheng Pharmaceutical Co., Ltd., National Pharmaceutical Standard H19991011) at a dose of 50 mg/kg.
Hot plate experiments were performed on rats 7 days after surgery. Rats were feed properly, and the indoor environment was maintained at about 25° C. The temperature of the YLS-6B intelligent hot plate instrument (purchased from Beijing Zhongshi Di Chuang Technology Development Co., Ltd.) was set at about 55° C. The rats were placed on the hot plate instrument in a closed, detachable, and transparent plexiglass jar, and the time of occurrence of the hind paw licking or jump reaction was recorded. If there no reaction was observed from the rats with administration 20 seconds after placement in the jar, the SD rats were taken out to avoid scalding the paws due to too long heating. The pain threshold of such rats was calculated as 20 seconds. Each rat was tested twice in succession with the interval of at least 30 seconds. The average of results was calculated.
At the end of the experiment, the heating pain response time (i.e., pain threshold in second) of rats in the normal saline control group and individual drug-administered groups before administration and 10 min, 70 min, and 130 min after administration was recorded.
EXCEL's T-test function (two-tailed variance) was used to analyze the statistical difference between the paw lifting time thresholds due to heating pain of pre-modeling and post-modeling experimental rats to evaluate whether or not the modeling was successful. The difference among the heating pain time thresholds before administration and at each time point after administration was then analyzed to evaluate the pharmaceutical efficacy.

[3] = tested on: SD rats; assay: Needling experiment (vonFrey probe) in rats with sciatic nerve ligation; conditions: for paw lifting threshold due to needling at surgical side after administration: P5 0.2 μg/kg caudal vein, ibuprofen 50 mg/kg intragastric
Protocol: Eighteen male SD rats of 240-260 g (purchased from Huafukangcheng Co., Ltd.) were selected as experimental rats, and divided into three groups with six rats in each group for a needling experiment, including a group administered with the polypeptide at a dose of 0.2 μg/kg, a normal saline group and a positive control drug group (ibuprofen, 50 mg/kg).
as §1, §2
Fourteen days after surgery, the rats in the administration groups were tested before administration and 10 min\70 min\130 min after administration. The experimental rats were placed in a plexiglass observation chamber to acclimate the environment for 5 minutes until the rats no longer looked around. The ZS-CTY foot needling system (purchased from Beijing Zhongshi Di Chuang Technology Development Co., Ltd.) was connected to a win7 32-bit computer. The test software was opened to calibrate the zero point of the instrument, and then calibrate again after a 10 g weight was added. The vonFrey probe was used to slowly and gently stimulate the middle parts of the testing hind paws of the rats to observe the paw withdrawal reaction of the rats. […] The paw withdrawal reaction of rats due to physical activity was excluded. The reaction was recorded twice at each time point, and averaged to obtain paw lifting force thresholds (in g) due to needling. The foot needling system (purchased from Beijing Zhongshi Di Chuang Technology Development Co., Ltd.; lot. number: 20160101060001) was adjusted to zero with a 10 g weight, there was still a fundamental read fluctuation when the bottom of the rats' paws was needled. The fluctuation was generally between +3 and +5 g, which should be subtracted from the final value. If there was still a baseline, it should be removed.
EXCEL's T-test function (two-tailed variance) was used to analyze the statistical difference in paw lifting force thresholds due to needling between the untreated side and surgical side in the experimental rats to evaluate whether or not the modeling was successful. The difference among the needling pain force thresholds before administration and at each time point after administration was then analyzed to evaluate the pharmaceutical efficacy and effect duration.

[4] = P5 0.2 μg/kg, ibuprofen 50 mg/kg

Row | SMILES | acute toxicity [1] | paw lifting time threshold due to heating pain at surgical side after administration ([2]; 10 min after administration) [s] | paw lifting time threshold due to heating pain at surgical side after administration ([2]; 70 min after administration) [s] | paw lifting time threshold due to heating pain at surgical side after administration ([2]; 130 min after administration) [s] | duration of therapeutic (analgesic) effect, hot plate experiment [2, 4] [min] | paw lifting time threshold due to heating pain, surgical side before administration ([2]; baseline 7 days after surgery, before administration, hot plate about 55° C.) [s] | paw lifting time threshold due to heating pain, pre-modeling (control) ([2]; baseline of the group before modeling, hot plate about 55° C.) [s] | paw lifting threshold due to needling at surgical side after administration ([3]; 10 min after administration) [g] | paw lifting threshold due to needling at surgical side after administration ([3]; 70 min after administration) [g] | paw lifting threshold due to needling at surgical side after administration ([3]; 130 min after administration) [g] | duration of therapeutic (analgesic) effect, needling experiment [3, 4] [min] | paw lifting threshold due to needling at surgical side before administration ([3]; baseline 14 days after surgery, before administration) [g] | paw lifting threshold due to needling, healthy side (control) ([3]; healthy side of the group, control value) [g]
1 | CC[C@H](C)[C@H](NC(=O)[C@H](CCC(=O)O)NC(=O)[C@@H](NC(=O)[C@H](CC(=O)O)NC(=O)[C@H](CC(C)C)NC(=O)[C@H](CC(C)C)NC(=O)[C@H](CCCCN)NC(=O)[C@H](CCC(=O)O)NC(=O)[C@H](Cc1ccc(O)cc1)NC(=O)[C@H](CCCNC(=N)N)NC(=O)[C@H](CCCNC(=N)N)NC(=O)[C@H](CCCNC(=N)N)NC(=O)[C@H](CCC(N)=O)NC(=O)[C@H](CCCNC(=N)N)NC(=O)[C@H](CCCNC(=N)N)NC(=O)[C@H](CCCCN)NC(=O)[C@H](CCCCN)NC(=O)[C@H](CCCNC(=N)N)NC(=O)CNC(=O)[C@@H](N)Cc1ccc(O)cc1)[C@@H](C)O)C(=O)O [Polypeptide P5] | no lethal effect and other obvious toxic side effects |  |  |  |  |  |  |  |  |  |  |  | 
2 | CC(C)Cc1ccc(C(C)C(=O)O)cc1 (stereo not shown) [ibuprofen] |  | 5.74 | 4.64 | 4.19 | < 130 | 3.95 | 12.5 | 46.24 | 36.21 | 38.88 | < 130 | 28.72 | 73.65

— US20200385423A1, “USE OF EXCITATORY NERVE INJURY-RELATED POLYPEPTIDE IN PREVENTING, ALLEVIATING OR TREATING PAIN” (Biocells (Beijing) Biotech Co., Ltd., priority 2016, published 2020)
